Assay results from patent US7118895B2, “Process for producing aglycon by using diglycosidase and flavor-improved food containing the aglycon and converting agent to be used in the process” (Amano Enzyme Inc., priority 2000, dated 2006).

Test system: Crude diglycosidase
Experiment: Examination of pH in the conversion into isoflavone aglycons by diglycosidase using soybean materials
Assay type: biochemical, Penicillium multicolor IAM7153
Parameters: Decomposition efficiency of genistin family in soymilk / Decomposition efficiency of genistin family in defatted soybean / Decomposition efficiency of daidzin family in defatted soybean: concentration or dose not given beside the values
How it was run: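 Each soybean material (50 mg) is suspended and set to a pH between 2 and 11. Crude diglycosidase, adjusted to 1.88 AU/mL in enzyme solution of the same pH, is added, and the mixture is incubated at 55° C. Ethanol is added at 0, 1, 3 and 6 h, then supernatants go to HPLC.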

## O=c1c(-c2ccc(O)cc2)coc2cc(O)cc(O)c12 [genistein]
pH2.6, heat treatment of enzyme: no, reaction time 1 h
  Decomposition efficiency of genistin family in defatted soybean: 17.7%
pH2.6, heat treatment of enzyme: no, reaction time 3 h
  Decomposition efficiency of genistin family in defatted soybean: 32.7%
pH2.6, heat treatment of enzyme: no, reaction time 6 h
  Decomposition efficiency of genistin family in defatted soybean: 34.6%
pH3.4, heat treatment of enzyme: no, reaction time 1 h
  Decomposition efficiency of genistin family in defatted soybean: 56.9%
pH3.4, heat treatment of enzyme: no, reaction time 3 h
  Decomposition efficiency of genistin family in defatted soybean: 62.5%
pH3.4, heat treatment of enzyme: no, reaction time 6 h
  Decomposition efficiency of genistin family in defatted soybean: 68.8%
pH3.4, heat treatment of enzyme: yes, reaction time 6 h
  Decomposition efficiency of genistin family in defatted soybean: 14.1%
pH4.8, heat treatment of enzyme: no, reaction time 0 h
  Decomposition efficiency of genistin family in defatted soybean: 14.5%
pH4.8, heat treatment of enzyme: no, reaction time 1 h
  Decomposition efficiency of genistin family in defatted soybean: 56.1%
pH4.8, heat treatment of enzyme: no, reaction time 3 h
  Decomposition efficiency of genistin family in defatted soybean: 61.9%
pH4.8, heat treatment of enzyme: no, reaction time 6 h
  Decomposition efficiency of genistin family in defatted soybean: 68.5%
pH4.8, heat treatment of enzyme: yes, reaction time 6 h
  Decomposition efficiency of genistin family in defatted soybean: 25.2%
pH5.4, heat treatment of enzyme: no, reaction time 0 h
  Decomposition efficiency of genistin family in defatted soybean: 14.5%
pH5.4, heat treatment of enzyme: no, reaction time 1 h
  Decomposition efficiency of genistin family in defatted soybean: 51.5%
pH5.4, heat treatment of enzyme: no, reaction time 3 h
  Decomposition efficiency of genistin family in defatted soybean: 55.4%
pH5.4, heat treatment of enzyme: no, reaction time 6 h
  Decomposition efficiency of genistin family in defatted soybean: 60.3%
pH5.4, heat treatment of enzyme: yes, reaction time 6 h
  Decomposition efficiency of genistin family in defatted soybean: 48.0%
pH6.6, heat treatment of enzyme: no, reaction time 1 h
  Decomposition efficiency of genistin family in defatted soybean: 49.3%
pH6.6, heat treatment of enzyme: no, reaction time 3 h
  Decomposition efficiency of genistin family in defatted soybean: 51.4%
pH6.6, heat treatment of enzyme: no, reaction time 6 h
  Decomposition efficiency of genistin family in defatted soybean: 53.7%
pH6.6, heat treatment of enzyme: yes, reaction time 6 h
  Decomposition efficiency of genistin family in defatted soybean: 46.4%
pH7.8, heat treatment of enzyme: no, reaction time 1 h
  Decomposition efficiency of genistin family in defatted soybean: 36.7%
pH7.8, heat treatment of enzyme: no, reaction time 3 h
  Decomposition efficiency of genistin family in defatted soybean: 42.5%
pH7.8, heat treatment of enzyme: no, reaction time 6 h
  Decomposition efficiency of genistin family in defatted soybean: 45.7%
pH7.8, heat treatment of enzyme: yes, reaction time 6 h
  Decomposition efficiency of genistin family in defatted soybean: 22.0%
